Assay results from patent US7795290B2 (Genentech, Inc., priority 2004, dated 2010).

What follows are molecules tested against T1, AKT1 (Homo sapiens, UniProt P31749) (assay: HTS ATP-utilizing enzyme assay, off-chip mobility-shift (Caliper HTS 250)). Details: kinase named = inhibitory activity/selectivity; test compound 10 μM; active = greater than three-sigma from mean.
T1 construct: purchased Upstate 14-276
Format: biochemical
From the text: The following procedures describe the reagent and plate preparation for a HTS of an ATP-utilizing enzyme, such as a protein kinase, run in an off-chip mobility-shift assay format. The following provides an HTS protocol for running a protein kinase HTS screen on a Caliper HTS 250 microfluidics system. The following parameters are dependent on the protein kinase used and can be determined by one skilled in the art as part of a typical assay development process. For example, the peptide substrate used can be identified from the current literature, by screening a peptide library of potential protein kinase substrates, or by other applicable means accepted in the field.
The following table provides typical screen assay parameters appropriate for a Caliper HTS 250 microfluidics system used to assay AKT1. Parameters used to assay other protein kinases can be determined by one skilled in the art.
Assays to determine the kinase inhibitory activity of chemical entities of the present disclosure were performed using a Caliper HTS 250 microfluidics device, Greiner U-bottom assay plates, a Multidrop for transfer of reagents, and Biomek FX (AMNCBM03) software. Initially, 2.4 μL of a 1 mM solution of a test compound in 100% DMSO was added to a well of the Greiner U-bottom plate. A single Greiner U-bottom plate having 24×16 wells could include multiple test compounds. […] Using the Biomek FX, 10 μL of 0.5 M EDTA was added by the span-8 to wells, indicated as 100% Control and 2.4 μL of 100% DMSO was added by the span-8 to wells, indicated as 0% Control. […] The total reaction volume in each well was 25 μL, and the concentration of the test compound was 10 μM. The assay plate was incubated for 2.5 hrs at 20° C. to 22° C. […] The inhibition of the ATP-utilizing enzyme, such as a particular protein kinase, was determined by measuring the ratio of the peptide substrate to phosphorylated product for each well of the assay plate using the Caliper HTS 250 system.
The use of three-sigma statistical limits represents a conservative method for declaring potential hits among targets. The three-sigma activity, as well as the mean population activity, can be different for each target enzyme.
Each chemical entity listed in Table 2 was tested for protein kinase inhibitory activity according to the biological assays and definitions of protein kinase inhibitory activity as described herein.

T1 sequence (P31749 whole entry): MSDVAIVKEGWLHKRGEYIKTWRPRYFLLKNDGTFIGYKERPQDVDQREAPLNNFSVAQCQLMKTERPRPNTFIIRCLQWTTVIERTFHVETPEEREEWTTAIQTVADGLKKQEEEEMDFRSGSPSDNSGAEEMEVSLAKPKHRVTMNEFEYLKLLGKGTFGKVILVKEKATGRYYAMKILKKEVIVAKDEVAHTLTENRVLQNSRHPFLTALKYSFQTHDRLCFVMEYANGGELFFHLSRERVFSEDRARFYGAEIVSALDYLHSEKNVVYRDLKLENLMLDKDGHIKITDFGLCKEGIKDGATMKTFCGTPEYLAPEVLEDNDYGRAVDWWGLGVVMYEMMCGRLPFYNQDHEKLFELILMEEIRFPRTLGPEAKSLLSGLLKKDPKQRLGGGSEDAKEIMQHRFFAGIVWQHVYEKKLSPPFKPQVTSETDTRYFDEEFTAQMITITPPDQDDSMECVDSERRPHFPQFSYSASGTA

SMILES | Activity
CC(C)(C)OC(=O)N1CCN(C(=O)CCCN(C(=O)c2cccs2)c2nc(-c3cc4ccccc4o3)cs2)CC1 [tert-butyl 4-(4-(N-(4-(benzofuran-2-yl)thiazol-2-yl)thiophene-2-carboxamido)butanoyl)piperazine-1-carboxylate] | AKT1
CN(C)CCNC(=O)CCN(C(=O)c1cccs1)c1nc(-c2cc3ccccc3o2)cs1 [N-(4-(benzofuran-2-yl)thiazol-2-yl)-N-(3-(2-(dimethylamino)ethylamino)-3-oxopropyl)thiophene-2-carboxamide] | AKT1
O=C(c1cccs1)N(CCCN1CCOCC1)c1nc(-c2ccc(Cl)s2)cs1 [N-(4-(5-chlorothiophen-2-yl)thiazol-2-yl)-N-(3-morpholinopropyl)thiophene-2-carboxamide] | AKT1
CS(=O)(=O)c1ccc2c(c1)CCN2C(=O)CCCN(C(=O)c1cccs1)c1nc(-c2cc3ccccc3o2)cs1 [N-(4-(benzofuran-2-yl)thiazol-2-yl)-N-(4-(5-(methylsulfonyl)indolin-1-yl)-4-oxobutyl)thiophene-2-carboxamide] | AKT1
COc1ccc(-c2csc(N(CCCN3CCOCC3)C(=O)c3ccccc3)n2)cc1OC [N-(4-(3,4-dimethoxyphenyl)thiazol-2-yl)-N-(3-morpholinopropyl)benzamide] | AKT1
O=C(CCN(C(=O)c1cccs1)c1nc(-c2cc3ccccc3o2)cs1)N1CCCC(O)C1 (stereo not drawn) [N-(4-(benzofuran-2-yl)thiazol-2-yl)-N-(3-(3-hydroxypiperidin-1-yl)-3-oxopropyl)thiophene-2-carboxamide] | AKT1
O=C(c1cccs1)N(CCC(=O)N1CCCC1CO)c1nc(-c2cc3ccccc3o2)cs1 (stereo not drawn) [N-(4-(benzofuran-2-yl)thiazol-2-yl)-N-(3-(2-(hydroxymethyl)pyrrolidin-1-yl)-3-oxopropyl)thiophene-2-carboxamide] | AKT1
O=C(c1cccs1)N(CCCN1CCOCC1)c1nc(-c2cccc(C(F)(F)F)c2)cs1 [N-(3-morpholinopropyl)-N-(4-(3-(trifluoromethyl)phenyl)thiazol-2-yl)thiophene-2-carboxamide] | AKT1
CC(C)(C)OC(=O)NCCNC(=O)CCCN(C(=O)c1cccs1)c1nc(-c2cc3ccccc3o2)cs1 [tert-butyl 2-(4-(N-(4-(benzofuran-2-yl)thiazol-2-yl)thiophene-2-carboxamido)butanamido)ethylcarbamate] | AKT1
CN1CCN(CCCN(C(=O)c2ccco2)c2nc(-c3ccccc3)cs2)CC1 [N-(3-(4-methylpiperazin-1-yl)propyl)-N-(4-phenylthiazol-2-yl)furan-2-carboxamidevv] | AKT1
O=C(c1ccc(F)cc1)N(CCCN1CCOCC1)c1nc(-c2ccccc2)cs1 [4-fluoro-N-(3-morpholinopropyl)-N-(4-phenylthiazol-2-yl)benzamide] | AKT1
NC(=O)C1CCCN(C(=O)CCN(C(=O)c2cccs2)c2nc(-c3cc4ccccc4o3)cs2)C1 (stereo not drawn) [1-(3-(N-(4-(benzofuran-2-yl)thiazol-2-yl)thiophene-2-carboxamido)propanoyl)piperidine-3-carboxamide] | AKT1
NC(=O)C1CCCN1CCCN(C(=O)c1cccs1)c1nc(-c2cc3ccccc3o2)cs1 (stereo not drawn) [1-(3-(N-(4-(benzofuran-2-yl)thiazol-2-yl)thiophene-2-carboxamido)propyl)pyrrolidine-2-carboxamide] | AKT1
CNC(=O)C1CCN(C(=O)CCCN(C(=O)c2cccs2)c2nc(-c3cc4ccccc4o3)cs2)CC1 [1-(4-(N-(4-(benzofuran-2-yl)thiazol-2-yl)thiophene-2-carboxamido)butanoyl)-N-methylpiperidine-4-carboxamide] | AKT1
O=C(NCCO)c1ccc(-c2csc(N(CCCN3CCOCC3)C(=O)c3cccs3)n2)cc1 [N-(4-(4-(2-hydroxyethylcarbamoyl)phenyl)thiazol-2-yl)-N-(3-morpholinopropyl)thiophene-2-carboxamide] | AKT1
O=C(c1cccs1)N(CCCN1CCOCC1)c1nc(-c2cc3cc([N+](=O)[O-])ccc3o2)cs1 [N-(3-morpholinopropyl)-N-(4-(5-nitrobenzofuran-2-yl)thiazol-2-yl)thiophene-2-carboxamide] | AKT1
COc1ccc(-c2csc(N(CCCc3ccccc3)C(=O)c3cccs3)n2)cc1OC [N-(4-(3,4-dimethoxyphenyl)thiazol-2-yl)-N-(3-phenylpropyl)thiophene-2-carboxamide] | AKT1

SMILES | Activity
O=C(CCN1CCOCC1)NCCCN(C(=O)c1cccs1)c1nc(-c2cc3ccccc3o2)cs1 [N-(4-(benzofuran-2-yl)thiazol-2-yl)-N-(3-(3-morpholinopropanamido)propyl)thiophene-2-carboxamide] | AKT1
O=C(c1ccco1)N(CCCCN1CCOCC1)c1nc(-c2cc(-c3ccccc3)no2)cs1 [N-(4-morpholinobutyl)-N-(4-(3-phenylisoxazol-5-yl)thiazol-2-yl)furan-2-carboxamide] | AKT1
COc1ccc(-c2csc(N(CCCN3CCOCC3)C(=O)c3cccs3)n2)cc1 [N-(4-(4-methoxyphenyl)thiazol-2-yl)-N-(3-morpholinopropyl)thiophene-2-carboxamide] | AKT1
O=C(c1cccs1)N(CCCN1CCOCC1)c1nc(-c2ccc(-c3ccccn3)s2)cs1 [N-(3-morpholinopropyl)-N-(4-(5-(pyridin-2-yl)thiophen-2-yl)thiazol-2-yl)thiophene-2-carboxamide] | AKT1
O=C(CC1NC(=O)NC1=O)NCCCN(C(=O)c1cccs1)c1nc(-c2cc3ccccc3o2)cs1 (stereo not drawn) [N-(4-(benzofuran-2-yl)thiazol-2-yl)-N-(3-(2-(2,5-dioxoimidazolidin-4-yl)acetamido)propyl)thiophene-2-carboxamide] | AKT1
CNC(=O)[C@H]1CCCN1CCCN(C(=O)c1cccs1)c1nc(-c2cc3ccccc3o2)cs1 [(R)-1-(3-(N-(4-(benzofuran-2-yl)thiazol-2-yl)thiophene-2-carboxamido)propyl)-N-methylpyrrolidine-2-carboxamide] | AKT1
NC(=O)C1CCCCN1C(=O)CCN(C(=O)c1cccs1)c1nc(-c2cc3ccccc3o2)cs1 (stereo not drawn) [1-(3-(N-(4-(benzofuran-2-yl)thiazol-2-yl)thiophene-2-carboxamido)propanoyl)piperidine-2-carboxamide] | AKT1
COc1ccc(-c2csc(N(CCCN3CCOCC3)C(=O)c3cccs3)n2)cc1OC [N-(4-(3,4-dimethoxyphenyl)thiazol-2-yl)-N-(3-morpholinopropyl)thiophene-2-carboxamide] | AKT1
O=C(c1cccs1)N(CCCN1CCC(O)(O)CC1)c1nc(-c2cc3ccccc3o2)cs1 [N-(4-(benzofuran-2-yl)thiazol-2-yl)-N-(3-(4,4-dihydroxypiperidin-1-yl)propyl)thiophene-2-carboxamide] | AKT1
Cn1cccc1C(=O)N(CCCN1CCCC1=O)c1nc(-c2cc(-c3ccccc3)no2)cs1 [1-methyl-N-(3-(2-oxopyrrolidin-1-yl)propyl)-N-(4-(3-phenylisoxazol-5-yl)thiazol-2-yl)-1H-pyrrole-2-carboxamide] | AKT1
COc1ccc(-c2csc(N(CCCN3CCCCCC3)C(=O)c3ccccc3)n2)cc1 [N-(3-(azepan-1-yl)propyl)-N-(4-(4-methoxyphenyl)thiazol-2-yl)benzamide] | AKT1
COc1ccc(-c2csc(N(CCCN3CCOCC3)C(=O)c3ccc(Cl)cc3)n2)cc1 [4-chloro-N-(4-(4-methoxyphenyl)thiazol-2-yl)-N-(3-morpholinopropyl)benzamide] | AKT1
CN(C)C(=O)c1ccc(-c2csc(N(CCCN3CCOCC3)C(=O)c3cccs3)n2)cc1 [N-(4-(4-(dimethylcarbamoyl)phenyl)thiazol-2-yl)-N-(3-morpholinopropyl)thiophene-2-carboxamide] | AKT1
Cc1ccc(-c2csc(N(CCCN3CCOCC3)C(=O)c3cccs3)n2)c(C)c1 [N-(4-(2,4-dimethylphenyl)thiazol-2-yl)-N-(3-morpholinopropyl)thiophene-2-carboxamide] | AKT1
N#CCCN(CC1CCCO1)C(=O)CCCN(C(=O)c1cccs1)c1nc(-c2cc3ccccc3o2)cs1 (stereo not drawn) [N-(4-(benzofuran-2-yl)thiazol-2-yl)-N-(4-((2-cyanoethyl)((tetrahydrofuran-2-yl)methyl)amino)-4-oxobutyl)thiophene-2-carboxamide] | AKT1
COc1ccc(-c2csc(N(CCCN3CCOCC3)C(=O)C3CCC3)n2)cc1OC [N-(4-(3,4-dimethoxyphenyl)thiazol-2-yl)-N-(3-morpholinopropyl)cyclobutanecarboxamide] | AKT1
